Experimental findings from US10398789B2, “Methods, compositions and kits for providing a therapeutic treatment” (priority 2010, dated 2019) are described below.

Assay [1] is described as follows: Free T4 / TSH monitoring under hypothyroid induction therapy, glioblastoma subject (Example 1). Type of assay: in vivo, human. The conditions noted are these: Example 1 GBM subject; PTU 600 mg/day in parallel with temozolomide; after about 12 weeks of treatment.
Description: Shortly thereafter carboplatin treatment (7 mg/kg) was initiated along with continuation of the thyroid reduction therapy, using 600 mg/day PTU.
In order to achieve hypothyroxinemia, in addition to PTU, 5 μg of triiodotionine (T3) was added 3 times a day in order to inhibit TSH and reduce thyroxine level.
Assay [2] in a line: Free T4 level, subject with malignant fibrous histiocytoma (Example 2). Type of assay: in vivo, human. The conditions noted are these: methimazole 40 mg/day with palliative radiation (46Gy), after 2 months. As for the experimental part: The subject was maintained on Cytomel® 5 μg, three times a day and methimazole (reduced to 30 mg once a day).
Assay [3] concerns malignant fibrous histiocytoma (MFH) of the left pulmonary vein. Nature of the assay: Tumor size / mass, subject with malignant fibrous histiocytoma (Example 2). The conditions noted are these: methimazole 40 mg/day with palliative radiation (46Gy), after 2 months.
The nature of assay [4]: T4 / FT4 levels in treated cancer patients (summary of empirical findings). The assay is classed as in vivo, human. The conditions noted are these: Cytomel at 5-40 μg/day. The text has this: (§1) These clinical findings correlated with the subject being at a state of moderate hypothyroidism, as indicated by the low levels (below normal) of T4 in the subject's blood and above normal values of TSH; • combined treatment of cancer subjects with an anti-thyroid agent, such as methimazole or PTU, in combination with Cytomel®, slowed tumor growth and/or enhanced sensitivity of the tumor cells to chemotherapy and/or radiation therapy.

For the next assay, the system named is cancer. Nature of the assay: Growth of cancer in treated cancer patients (summary of empirical findings). The assay is classed as in vivo, human. The conditions noted are these: Cytomel at 5-40 μg/day.
Description: as §1

Assay [5] deals with grade IV glioblastoma (GBM). The assay can be described thus: Brain MRI tumor response, glioblastoma subject (Example 1). The assay is classed as in vivo, human. The conditions noted are these: Example 1, tumor recurrence about two years later; regimen as labelled.

In the case of `CCCc1cc(=O)[nH]c(=S)[nH]1` [PTU, propylthiouracil], the T4 levels entry in assay [1] is given as “slightly reduced”.

`Cn1cc[nH]c1=S` [methimazole]: in assay [2], the “free T4 level” value is reported as “no change”. In assay [3], the tumor size entry is recorded as “no change”.

For `N[C@@H](Cc1cc(I)c(Oc2ccc(O)c(I)c2)c(I)c1)C(=O)O` [Cytomel®, Liothyronine sodium], in assay [4], the T4 levels entry is “decrease in T4 levels”. The “growth of the cancer” value with cancer is on record as “slows the growth of the cancer”.

As for `N.N.O=C([O-])C1(C(=O)[O-])CCC1.[Pt+2]` [carboplatin], in assay [5], the “tumor response on MRI at recurrence” value is “no response”.
